# Earlier results, collected in patent publication US20250099385A1, “Extended Release Boswellic Acid and Manufacturing Thereof” (Lonza Greenwood LLC, priority 2022, published 2025).
# Entries after “also recorded” stand apart in the source; their conditions may differ.
# How the values were obtained:
# [1] = not given; remark: listed apart in the source
# [2] = biological target: T1, 5-lipoxygenase (Homo sapiens, UniProt P09917)
# T1 sequence (P09917 1-674): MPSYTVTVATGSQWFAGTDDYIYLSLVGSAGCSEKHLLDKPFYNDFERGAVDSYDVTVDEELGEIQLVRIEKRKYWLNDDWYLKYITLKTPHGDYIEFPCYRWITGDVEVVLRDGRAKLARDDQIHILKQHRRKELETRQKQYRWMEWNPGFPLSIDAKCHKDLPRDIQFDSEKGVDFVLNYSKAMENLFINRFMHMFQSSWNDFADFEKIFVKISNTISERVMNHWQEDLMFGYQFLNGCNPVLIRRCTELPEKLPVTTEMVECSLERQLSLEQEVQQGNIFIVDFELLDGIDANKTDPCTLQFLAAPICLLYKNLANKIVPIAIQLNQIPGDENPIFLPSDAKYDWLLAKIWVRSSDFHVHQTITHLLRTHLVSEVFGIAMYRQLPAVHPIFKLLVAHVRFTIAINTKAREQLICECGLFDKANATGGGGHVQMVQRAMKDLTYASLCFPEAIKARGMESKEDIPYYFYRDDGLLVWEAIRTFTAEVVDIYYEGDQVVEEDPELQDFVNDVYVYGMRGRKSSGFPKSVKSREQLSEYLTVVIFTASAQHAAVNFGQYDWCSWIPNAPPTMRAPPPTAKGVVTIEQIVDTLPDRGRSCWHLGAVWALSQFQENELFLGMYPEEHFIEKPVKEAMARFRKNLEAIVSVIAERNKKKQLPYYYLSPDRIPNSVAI
substance,measurement,setting,value
3-O-acetyl-11-keto-.beta.-boswellic acid [AKBA],time at which AKBA levels in the blood peak,after oral consumption,~3 h
same,AKBA levels in the blood beyond 10 hours,beyond 10 hours from oral consumption,nearly zero concentration; also recorded: almost zero concentrations
same,bioavailability,in vivo,poorly bioavailable
same,water solubility,[1],highly water-insoluble
same,"5-lipoxygenase inhibition, rank among the boswellic acids",[2],most potent inhibitor
